Where “and” joins values, the source holds several entries; their conditions need not be identical. Equal values may be shown once. Read-outs that look alike come from different tables or passages of the source.
Key:
γ-globin mRNA [1] = assay: γ-globin mRNA in cultured primary human erythroid progenitors (BFU-e), real-time PCR; assay type: cell-based
Experimental: Erythroid progenitors were cultured from cord blood CD34+ cells. […] Each compound was tested in three different cultures. […] On day 14, RNA was extracted from cultured erythroid cells, and relative quantification PCR was performed. Briefly, cDNA was generated from equal amounts of total RNA extracted using The PerfectPure RNA Purification Kit (5 Prime Inc Gaithersburg, Md.). Real-time PCR was performed using an ABI 7500 Real-Time PCR system (Applied Biosystems, Foster City, Calif.). Levels of globin mRNA were calculated by the ΔΔCt method. […] GAPDH levels were used for standardization. Western blotting Nuclear extract of K562 cells and 14-day-old BFU-e were analyzed by electrophoresis using 5-24% gradient SDS-polyacrylamide mini-gels (BIORAD Laboratories. Hercules Calif.). Proteins in the gels were transferred to Immobilon-P membranes. Blots were then incubated with BCL11A polyclonal (Novus Biologicals, Littleton Co) or mouse monoclonal (Santa Cruz Biotechnology, Santa Cruz Calif.) antibodies, after washing blots were incubated with anti-rabbit IgG-horseradish peroxidase secondary antibody (ECL, Little Chalfont Buckinghamshire UK). BCL11A bands were detected on the X-ray film using Western Lightning Reagents (Perking Elmer Inc, Waltham, Mass.).

CB BFU-E cells = assay: CB BFU-E cell proliferation (cells/colony); conditions: FIG. 8
Experimental: Fetal globin-inducing activity in human erythroid progenitors was assessed. Human erythroid progenitors were cultured from peripheral blood samples, exposed to the test compounds at varying concentrations and for varying durations and analyzed for globin chain mRNA ratios. Erythroid progenitors were cultured from cord blood CD34+ cells. Briefly, CD34+ cells in the human cord blood were separated using a Ficoll-paque density gradient. CD34+ cells were cultured in H4230 medium containing 2 mM L-glutamine, 1% Methylcellulose in Iscove's Medium, 30% Fetal Bovine Serum, 1% Bovine Serum Albumin and 10^-4 M β-mercaptoethanol. Methylcellulose H4230 medium was supplemented with EPO (0.5 U/ml) and IL-3 (20 ng/ml) to support BFU-e growth. Cells were cultured in […] mini-dishes and incubated in a humidified atmosphere containing 5% CO2, at 37° C. Different concentrations of the test compounds were added at the time the cultures were established. Each compound was tested in three different cultures. BFU-e colonies grown in mini-dishes were counted on day 14 and harvested for mRNA analysis.

red blood cells = assay: Adult human subject with alpha thalassemia trait given desloratidine; assay type: in vivo; conditions: 5 mg/day once per day, within 4 weeks
Experimental: Desloratidine was administered to an adult human subject with alpha thalassemia trait at a standard allergy treatment dose of 5 mg/day total, once per day. […] This is an unexpected and rapid rise in red blood cell levels in a mildly anemic subject. Accordingly, the inventors have discovered that desloratidine can be used to increase red blood cells in a subject at a dose of […] in order to increase the red blood levels in a subject in need of treatment. In some embodiments, the subject who is administered desloratidine is selected to have a low red blood count, or is anaemic or has a cytopenia as disclosed herein.

γ-globin mRNA [2] = assay: γ-globin mRNA gene expression in K562 cells; assay type: cell-based; conditions: FIGS. 4A and 4B, K562 cells; Resveratrol 30 μM, desloratadine 50 μM, NSC 50 μM, Benserazine 5 μM
γ-globin [3] = assay: Fetal globin (γ-globin mRNA, HbF) induction in phlebotomized anemic baboons; assay type: in vivo, baboons (Papio hamadryas anubis)
γ-globin [4] = assay: as above; assay type: in vivo, baboons (Papio hamadryas anubis); conditions: for increase of fetal hemoglobin (HbF) protein levels above levels produced by erythroid stress alone: Desloratidine 0.6 mg/kg orally
Experimental: (§1) Studies to evaluate pharmacokinetic properties and γ-globin induction were performed in juvenile baboons (Papio hamadryas anubis). Briefly, animals were chronically phlebotomized on a daily basis to achieve stable anemia, maintaining a total hemoglobin level of 7.0 to 7.5 g/dl. Candidate compounds were administered intravenously or orally once daily in single doses for pharmacokinetic studies, or once daily in single doses, 4-5 days per week for 4-5 weeks, for pharmacodynamic studies. […] Levels of γ-globin mRNA expression and globin chain synthesis were assessed in baboons before and during treatment with test compounds. A washout period between administrations of different compounds in the same baboon was provided.
(§2) Chronically catheterized baboons were phlebotomized daily to create chronic anemia with total hemoglobin levels (Hb) between 7.0 to 7.5 g/dl which simulates the expanded erythropoiesis and anemia in sickle cell disease and beta thalassemia. Blood counts were drawn and total Hb (hemoglobin) and reticulocytes were analyzed on a hemavet analyzer. Fetal globin mRNA was analyzed by RT-PCR and proportions for f-cells were analyzed by flow cytometry. […] Desloratidine (0.6 mg/kg) was administered for 4 days following a washout period. Blood counts were obtained at least 3 days/week.
Baboons HL-25 and HD50 were phlebotomized daily to create anemia with erythroid expansion. When stably anemic, Desloratidine (0.6 mg/kg) was administered orally, fetal hemoglobin (HbF) protein levels were assayed.

γ-globin mRNA [5] = assay: γ-globin mRNA in cultured primary human erythroid progenitors (BFU-e), real-time PCR; assay type: cell-based; conditions: for fetal globin mRNA, Mean: vs untreated control cultures from the same subject
[6] = test system: red blood cell production; assay: Total hemoglobin and hematocrit in phlebotomized anemic baboons; assay type: in vivo, baboons (Papio hamadryas anubis); conditions: FIG. 12B; MS-275 3 mg/m^2 for 4 days and 2 weeks vs ST20 2 and 4 days; desloratadine 0.6 mg/kg for two days
Experimental: as §1, §2
Baboon 1509 (weight 10.9 kg) was phlebotomized to induce anemia and marrow expansion, similar to the hemoglobin disorders.

γ-globin [7] = conditions: in humans, about 3-fold less than in baboons; cited from earlier work
γ-globin gene promoter = assay: High throughput screen: LCR-HS2 γ-globin gene promoter EGFP reporter cell assay; assay type: cell-based, human; conditions: pilot screen plate, fold increase relative to NC (negative control)
Text: FIG. 1B is a schematic illustration showing an illustration of the method of the high throughput screening assay (HTS) with the cell construct comprising a locus control region (LCR) linked to the y-globin gene promoter and enhanced GFP (EGFP). A compound which activates γ-globin promoter will induce gene expression of EGFP which can be detected by a suitable detector.
A human cell-based assay which was previously used in low throughput assays, utilizing a 1.4-kilobase (kb) KpnI-BglII fragment of the HS2 of the locus control region (LCR) linked to the γ-globin gene promoter and the enhanced green fluorescent protein (EGFP) reporter gene, was adapted for high throughput screening and employed as the primary screen (FIG. 1A). Cytotoxic activity was assayed in a simultaneous counter screen. […] Several hits were immediately eliminated from further development as potential hemoglobinopathy therapeutics because of cytotoxicity (e.g., Idarubicin) or undesirable off-target effects, but nonetheless validated the HTS itself and were validated in secondary confirmatory assays as highly-potent HbF-inducers. […]

[8] = test system: γ-globin reporter cell line; assay: Cytotoxicity counter screen run simultaneously with the HTS; assay type: cell-based, human; conditions: simultaneous counter screen of the HTS
[9] = Desloratadine 3 uM, Cord Blood progenitors
[10] = Desloratadine 3 uM, Hemoglobin disorder progenitors

In the case of `Clc1ccc2c(c1)CCc1cccnc1C2=C1CCNCC1` [Desloratadine, 8-Chloro-6,11-dihydro-11-(4-piperidinylidene)-5H-benzo[5,6]cyclohepta[1,2-b]pyridine], the “% induction of γ-globin mRNA gene expression” value (γ-globin mRNA [1]; FIG. 4C, HFU-E (burst-forming units-erythroid) cells, Resveratrol 30 μM, desloratadine 50 μM, NSC 50 μM, Benserazine 5 μM) is reported as “most significant % increase”, the “effect in increasing % of γ-globin mRNA expression” value (γ-globin mRNA [1]; FIG. 6, BFU-e cells, Desloratadine 3 μM, Benserazide 3 μM, NSC5397 0.6 μM) is reported as “greatest effect” and the “number of blood cells per colony” value (CB BFU-E cells) is reported as “increase the number of blood cells per colony”. The Hemoglobin after treatment (red blood cells; increased from 10) was 11.5 g/gl, the hematocrit after treatment (red blood cells; increased from 30%) was 35% and the “% induction of γ-globin mRNA gene expression” value (γ-globin mRNA [2]) was “most significant % increase”. For the same compound, the “Increase in γ-globin mRNA above baseline” value (γ-globin [3]; Baboon HD50, Desloratadine oral 0.55 mg/kg) was 350%, the “Increase in γ-globin mRNA above baseline” value (γ-globin [3]; Baboon HD50, Desloratadine oral 0.55 mg/kg, listed as Desloratidine) was 350% and the “Increase in γ-globin mRNA above baseline” value (γ-globin [3]; Baboon HL25, Desloratadine oral 0.55 mg/kg) was 386%. The “Increase in γ-globin mRNA above baseline” value (γ-globin [3]; Baboon HL25, Desloratadine oral 0.55 mg/kg, listed as Desloratidine) was 386%, the “increase of fetal hemoglobin (HbF) protein levels above levels produced by erythroid stress alone” value (γ-globin [4]; Baboon HD50) was 170% and the “increase of fetal hemoglobin (HbF) protein levels above levels produced by erythroid stress alone” value (γ-globin [4]; Baboon HL25) was 193%. For the same compound, the “fetal globin mRNA” value (γ-globin [4]; Benserazide 1 or 3 mg/kg in baboon 1509, MS-275 and desloratidine) was “induced”, the “γ-globin mRNA expression in blood compared with positive control ST20 (150 mg/kg)” value (γ-globin [4]; FIG. 12A, MS-275 3 mg/m^2 for 4 days and 2 weeks, desloratadine 0.6 mg/kg for two days vs ST20 after 2 or 4 days) was “more effective” and the “time of treatment to detected fetal globin induction and increased HbF” value (γ-globin [4]; desloratidine, same baboon as ST-20) was ≤ 4 days. For the same compound, the “responses (cultures with induced fetal globin mRNA)” value (“responses” for short) (γ-globin mRNA [5]; [9]) was 4/4 responses, the “fetal globin mRNA, Mean” value (γ-globin mRNA [5]; [9]) was 323 % of control and the “responses” value (γ-globin mRNA [5]; [10]) was 3/3 responses. The “fetal globin mRNA, single subjects” value (γ-globin mRNA [5]; Desloratadine 3 uM, Hemoglobin disorder progenitors (subjects)) was 121 % of control and 123 % of control and 274.2 % of control, the “fetal globin mRNA, Mean” value (γ-globin mRNA [5]; [10]) was 175 % of control and the “responses” value (γ-globin mRNA [5]; Desloratadine 3 uM, Normal progenitors) was 1 response. For the same compound, the “fetal globin mRNA, Mean” value (γ-globin mRNA [5]; Desloratadine 3 uM, Normal progenitors (ABM), 1 response) was 1098 % of control, the “γ-globin mRNA induction” value (γ-globin mRNA [5]; cultured primary human erythroid progenitors, concentrations pharmacologically achievable in humans) was “up to 6 fold” and the “blood total hemoglobin (Hb) levels compared with positive control ST20 (150 mg/kg)” value [6] was “significantly more effective”.
For `CCC(C)(C)C(=O)[O-].[Na+]` [ST20, sodium 2,2-dimethylbutyrate], the “dose required to increase HbF expression” value (γ-globin [7]) is listed as 20 to 50 mg/kg, the “Increase in γ-globin mRNA above baseline” value (γ-globin [4]; Baboon HD50, ST20 oral 150 mg/kg) is listed as 310% and the “time of treatment after which fetal globin (HbF) mRNA increased” value (γ-globin [4]; ST-20, same baboon as desloratidine) is listed as 2 weeks. For the same compound, the “dose required to increase HbF expression” value (γ-globin [4]; in baboons) was 50 to 150 mg/kg.
With `CC(=O)[C@]1(O)Cc2c(O)c3c(c(O)c2[C@@H](O[C@H]2C[C@H](N)[C@H](O)[C@H](C)O2)C1)C(=O)c1ccccc1C3=O` [Idarubicin, idarubicin] the “fold induction of the γ-globin promoter” value (γ-globin gene promoter) was 8 fold and the “cytotoxicity (reason for elimination from further development)” value [8] was “cytotoxicity”.

— patent US9018176B2, “Inducers of hematopoiesis and fetal globin production for treatment of cytopenias and hemoglobin disorders” (priority 2010, dated 2015)
